Key:
[1] = Microsomal stability, mouse liver microsomes; type: in vitro ADME
Experimental: Microsomal stability screen. The microsomal stability of the target compounds was
determined at the Innopharma Drug Screening and Pharmacogenomics Platform (Santiago de

[2] = system: hippocampus of SAMP8 mice; assay: Hippocampal protein levels by western blot in SAMP8 mice; type: in vivo, mouse; conditions: 2 mg kg^–1 day^–1 oral, 4 weeks, vs control
From the text: (§1) In Vivo Proof-of-Concept of the Dual sEH / AChE Inhibitor […] in SAMP8 Mice Animals and treatment. The senescence-accelerated mouse-prone 8 (SAMP8) is an accelerated aging model established through phenotypic selection from AKR/J mice by […]
(§2) abnormal APP and β-amyloid processing and tau pathology, among others. Likewise, SAMP8 […]
(§3) and oxidative stress markers are present at early ages and during adultness.15 In this work, 5-month-old male SAMP8 mice were used to perform behavioral and molecular analyses.
(§4) Animals were randomly divided into SAMP8 control (n=8) and SAMP8 treated with 12c […]
(§5) (n=8, 2 mg kg‒1 day‒1). The animals had free access to food and water and were kept under standard temperature conditions (22 ± 2 °C) and 12-h/12-h light/dark cycles (300 lux/0 lux).
Compound 12c was dissolved in 1.8% (2-hydroxypropyl)-β-cyclodextrin (Sigma-Aldrich, St.
Louis, MO) and administered through drinking water for 4 weeks (Figure S6 of the Supporting Information). Control groups received water plus 1.8% (2-hydroxypropyl)-β-cyclodextrin during the treatment period. After 4 weeks of treatment, behavioral and cognitive tests were performed to study the effects of treatment on working memory. Drug administration was continued until euthanasia by cervical dislocation, three days after the cognitive tests were completed. The brains were immediately removed from the skulls and the hippocampi were dissected, frozen and maintained at ‒80 °C.
Weight and water consumption were controlled each week, and compound concentration was adjusted accordingly to reach the optimal dose. Mice were treated according to European Community Council Directive 86/609/EEC and were approved by the Institutional Animal Care and Use Committee of the University of Barcelona (670/14/8102) and by Generalitat de Catalunya, Spain (10291). All studies and procedures for the behavioral tests, brain dissection and extractions followed the ARRIVE. Every effort was made to minimize animal suffering and to reduce the number of animals. […]
Exploration was defined as sniffing or touching the objects with the nose and/or forepaws.
The discrimination index (DI) was calculated as (TN‒TO)/(TN+TO). To avoid object preference biases, objects were alternated. 70% EtOH was used to clean the arms and objects after each trial for the elimination of olfactory cues.
Molecular analyses. Immunodetection experiments by western blot. The hippocampal tissue from each animal was homogenized in lysis buffer (Tris HCl pH 7.4 mM, NaCl 150 mM, EDTA 5 mM and 1X-Triton X-100) containing phosphatase and protease inhibitors (Cocktail II, Sigma-Aldrich, St. Louis, MO, USA) to obtain total protein homogenates. The Bradford technique was used to determine total protein concentration. Aliquots of 15 μg of total hippocampal protein were used and separated by sodium dodecyl sulfate-polyacrylamide gel […] (SDS-PAGE) (8‒20%) and transferred into polyvinylidene difluoride (PVDF) membranes (Merck-Millipore, Burlington, MA, USA) for 2 h. The membranes were blocked in 5% non-fat milk in TRIS-buffered saline (TBS) containing 0.1% Tween 20 (TBS-T, Sigma-Aldrich, St. Louis, MO, USA) for 1 h at room temperature, and then, overnight […]
membranes were washed with TBS-T 3 times for 5 min and incubated with secondary antibodies for 1 h at room temperature. Immunoreactive protein was viewed with a Chemiluminescence-based detection kit, following the manufacturer’s protocol (ECL Kit; Merck-Millipore), and digital images were acquired using a ChemiDoc XRS+ System (BioRad lab, Hercules, CA, USA). Semi-quantitative analyses were done using ImageLab Software (BioRad Lab), and results were expressed in Arbitrary Units (AU) considering control protein levels as 100%. Protein loading was routinely monitored by immunodetection of glyceraldehyde-3-phosphate dehydrogenase (GADPH).

[3] = system: hippocampus of SAMP8 mice; assay: Hippocampal gene expression of inflammatory markers by qPCR in SAMP8 mice; type: in vivo, mouse; conditions: 2 mg kg^–1 day^–1 oral, 4 weeks, vs control
Experimental: Compostela, Spain). The human, rat and mice pooled microsomes, with a protein content of 20 mg mL‒1, were purchased from Tebu-Xenotech. The compounds were incubated in a 96-well microplate at 37 °C with the microsomes in 50 mM phosphate buffer (pH = 7.4) containing as cofactors 30 mM MgCl2, 10 mM NADP, 100 mM glucose-6-phosphate and 40 […]
Samples (75 µL) were taken from each well at 0, 10, 20, 40 and 60 min and transferred to a microplate. 4 °C Acetonitrile (75 µL) and internal standard (rolipram) were then added for inactivating the microsomes, and water with 0.5% formic acid (30 µL) was subsequently added for improving the chromatographic conditions, keeping the mixtures at 4 °C. The plate was centrifuged at 46,000 g for 30 min at 15 °C and supernatants were taken and analyzed in a UPLC-MS/MS system (UPLC QSM Waters Acquity) using reverse phase Acquity UPLC® HSST3 1.7 μm (2.1 mm × 50 mm, Waters) as the stationary phase, 0.1% formic acid in water (A) / 0.1% formic acid in acetonitrile (B) as the mobile phase, a flow of 0.8 mL min‒1, and the […]
The metabolic stability of the compounds was calculated from the logarithm of the remaining compound at each of the time points studied.
as §1, §2, §3, §4, §5
Compound 12c was dissolved in 1.8% (2-hydroxypropyl)-β-cyclodextrin (Sigma-Aldrich, St. […]

In the case of `O=C(Nc1ccc(OC(F)(F)F)cc1)NC1CCN(C(=O)CCCCNc2c3c(nc4cc(Cl)ccc24)CCCC3)CC1` [12c, 1-{1-{5-[(6-Chloro-1,2,3,4-tetrahydroacridin-9-yl)amino]pentanoyl}piperidin-4-yl}-3-[4-(trifluoromethoxy)phenyl]urea], the “amount of compound, mouse liver microsomes” value ([1]; after 10 min) is reported as 38%, the “amount of compound, mouse liver microsomes” value ([1]; after 20 min) is reported as 4% and the microsomal CLint at 1 h, 0.05 µM ([1]; mouse, liver microsomes (pooled), pH 7.4, 37 °C) is reported as 155 µL/min/mg. The half-life at 1 h, 0.05 µM ([1]; mouse, liver microsomes (pooled), pH 7.4, 37 °C, read-out: t1/2, mouse microsomes) was 4 min, the remaining at 1 h, 0.05 µM ([1]; mouse, liver microsomes (pooled), pH 7.4, after 1 h of incubation at 37 °C, read-out: % remaining compound, mouse microsomes) was 2% and the “hippocampal levels of synaptophysin (SYN)” value [2] was “significantly increased”. The “hippocampal protein levels of NFkβ” value [2] was “reduced in mice treated with 12c relative to untreated mice but without reaching statistical significance”, the “hippocampal protein levels of sAPPα” value [2] was “significant increase” and the “hippocampal protein levels of sAPPβ” value [2] was “tendency toward reduced levels”. For the same molecule, the “tau phosphorylation at Ser396” value [2] was “significant site-specific reduction”, the “tau phosphorylation at Ser404” value [2] was “slightly decreased phosphorylation” and the Gfap gene expression [3] was “tendency toward reduced gene expression”. The Il-1β gene expression [3] was “tendency toward reduced gene expression” and the Il-6 gene expression [3] was “significant reduction”.
